This is an account of results in patent US20240239806A1, “COMPOUNDS, COMPOSITIONS AND METHODS OF TREATING DISORDERS” (Chengdu Anticancer Bioscience, Ltd., priority 2021, published 2024).

What all share (type): cell-based
In one assay the test system is RPEMYC^H2B-GFP cells. Kind of assay: Phenotypic screening assay (mitotic arrest, polyploidy). To be noted: 1 nM to 30 μM; for IC50: read-out: Proliferative arrest (>50%). In outline:
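RPE cells expressing MYC and H2B-EGFP treated with compound at 1 nM–30 μM; mitotic index scored at 24 h and polyploidy (DNA content) at 48 h by automated imaging, with reads at 24, 48 or 72 h. Hits show transient mitotic arrest followed by polyploid accumulation.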

The subject of assay [1] is HCT116. The assay is described as follows: MECP in cancer cell line. As to conditions: Homo sapiens, HCT-116. In outline:
(§1)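 Imaging read-out (IN-Cell 2000): mitotic index at 24 h, polyploidy/DNA content at 48 h, also 72 h. Cells in DMEM/5% FBS, 37 °C, 5% CO2; compound 1 nM–30 μM. Binned A ≤1.0 μM, B ≤10.0 μM, C ≤30.0 μM, D >30.0 μM.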

The subject of assay [2] is Hela. The assay is described as follows: MECP in cancer cell line. To be noted: Homo sapiens. In outline: as §1
For assay [3], the system named is MDA-MB-231. The assay is described as follows: MECP in cancer cell line. To be noted: Homo sapiens. Summed up: as §1
The test system of assay [4] is NCI-H460. The assay is described as follows: MECP in cancer cell line. As to conditions: Homo sapiens. Summed up: as §1
Assay [5] relates to NCI-H596. Kind of assay: MECP in cancer cell line. As to conditions: Homo sapiens. Summed up:
as §1

Assay [6] concerns T2 HCC. Kind of assay: MECP in cancer cell line. As to conditions: Mus musculus. In outline: as §1
The test system of assay [7] is T98G. Kind of assay: MECP in cancer cell line. To be noted: Homo sapiens. In outline:
as §1

In assay [8] the test system is HCT116. Kind of assay: MTT assay of cellular proliferation. To be noted: Homo sapiens, HCT-116, 50% inhibition of cellular proliferation. In outline:
(§2)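 Cells grew in DMEM with 5% FBS, 2 mM L-glutamine and 1 mM pyruvate at 37 °C, 5% CO2, were seeded to 20-30% confluence over 15-24 h, then exposed to compound at 1 nM to 30 μM. MTT was added for 3-4 h; solubilized formazan was read at 570 nm and EC50 taken as 50% inhibition of proliferation.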

Assay [9] has as its system Hela. The assay is described as follows: MTT assay of cellular proliferation. To be noted: Homo sapiens, 50% inhibition of cellular proliferation. In outline: as §2
Assay [10] has as its system MDA-MB-231. The assay is described as follows: MTT assay of cellular proliferation. As to conditions: Homo sapiens; MDA-MB-231, MTT, 50% inhibition of cellular proliferation. Summed up: as §2
The next assay has as its system NCI-H23. Kind of assay: MTT assay of cellular proliferation. As to conditions: Homo sapiens, 50% inhibition of cellular proliferation. Summed up: as §2
The subject of assay [11] is NCI-H460. Kind of assay: MTT assay of cellular proliferation. As to conditions: Homo sapiens, 50% inhibition of cellular proliferation. Summed up:
as §2

Assay [12] has as its system NCI-H596. The assay is described as follows: MTT assay of cellular proliferation. As to conditions: Homo sapiens, 50% inhibition of cellular proliferation. Summed up:
as §2

The subject of assay [13] is T2 HCC. The assay is described as follows: MTT assay of cellular proliferation. As to conditions: Mus musculus, 50% inhibition of cellular proliferation. Summed up:
as §2

In assay [14] the test system is T98G. The assay is described as follows: MTT assay of cellular proliferation. As to conditions: Homo sapiens, 50% inhibition of cellular proliferation. Summed up: as §2
[15] abbreviates: read-out: Min. Effective conc. for Polyploidy (≥5%).

SMILES strings stand for the structures. Like-named read-outs stand apart in the source and are kept apart here.

`COc1cc(OC)cc(Oc2ccnc3ccccc23)c1` [Compound 7, 4-(3,5-dimethoxyphenoxy)quinoline]: the minimal effective concentration with RPEMYC^H2B-GFP cells (setting [15]) lay in the range of 0.001 to 1 µM; in the assay with RPEMYC^H2B-GFP cells (read-out: Mitotic Arrest (≥5%)), 0.001 to 1 µM; in the assay on HCT116 [1] it was 0.001 to 1 µM; in the assay with Hela [2], 0.001 to 1 µM; in the assay on MDA-MB-231 [3], 0.001 to 1 µM; with NCI-H460 [4] it was 1 to 10 µM. Also, the minimal effective concentration with NCI-H596 [5] is 0.001 to 1 µM; in the assay on T2 HCC [6], 1 to 10 µM; with T98G [7] it was 0.001 to 1 µM. Also, the IC50 in the assay on RPEMYC^H2B-GFP cells fell in the range of 1 to 1000 nM. Besides, the EC50 was 1 to 1000 nM with HCT116 [8]; 1000 to 10000 nM in the assay on Hela [9]; 1 to 1000 nM in the assay with MDA-MB-231 [10]; 1 to 1000 nM with NCI-H23; 1000 to 10000 nM in the assay with NCI-H460 [11]; 1000 to 10000 nM in the assay with NCI-H596 [12]. The figures for the EC50 with T2 HCC [13] and in the assay with T98G [14] were 1000 to 10000 nM and 1 to 1000 nM, respectively.

Regarding `COC(=O)c1cc(OC)cc(Oc2ncnc3cc(OC)c(OC)cc23)c1` [Compound 29], the minimal effective concentration with RPEMYC^H2B-GFP cells (setting [15]) was in the range of 0.001 to 1 µM; with RPEMYC^H2B-GFP cells (read-out: Mitotic Arrest (≥5%)), 0.001 to 1 µM; with HCT116 [1], 1 to 10 µM; in the assay on Hela [2], 0.001 to 1 µM; in the assay with MDA-MB-231 [3], 1 to 10 µM; with NCI-H460 [4] it was 1 to 10 µM. In addition, the minimal effective concentration in the assay on NCI-H596 [5] was 0.001 to 1 µM; in the assay on T2 HCC [6], 0.001 to 1 µM; in the assay with T98G [7], 1 to 10 µM. The IC50 in the assay with RPEMYC^H2B-GFP cells was in the range of 1 to 1000 nM. In addition, the EC50 is 1000 to 10000 nM with HCT116 [8]; 1 to 1000 nM in the assay with Hela [9]; 1 to 1000 nM in the assay with MDA-MB-231 [10]; 1 to 1000 nM in the assay with NCI-H23; greater than 30000 nM with NCI-H460 [11]; 1 to 1000 nM with NCI-H596 [12]. Also, the EC50 with T2 HCC [13] fell in the range of 1 to 1000 nM; in the assay with T98G [14], 1000 to 10000 nM.

Regarding `COC(=O)c1cc(OC)cc(Oc2ncnc3cc[nH]c23)c1` [Compound 34, methyl 3-((5H-pyrrolo[3,2-d]pyrimidin-4-yl)oxy)-5-methoxybenzoate], the minimal effective concentration in the assay on RPEMYC^H2B-GFP cells (setting [15]) lay in the range of 0.001 to 1 µM; in the assay on RPEMYC^H2B-GFP cells (read-out: Mitotic Arrest (≥5%)) it was 0.001 to 1 µM; in the assay on HCT116 [1], 0.001 to 1 µM; with Hela [2] it was 0.001 to 1 µM; in the assay on MDA-MB-231 [3], 0.001 to 1 µM; with NCI-H460 [4], 1 to 10 µM. Besides, the minimal effective concentration with NCI-H596 [5] lay within 0.001 to 1 µM; in the assay on T2 HCC [6] it was 0.001 to 1 µM; in the assay with T98G [7], 1 to 10 µM. In the assay on RPEMYC^H2B-GFP cells, the IC50 lay within 1 to 1000 nM. Besides, the EC50 in the assay with HCT116 [8] was 1 to 1000 nM; in the assay with Hela [9], 1 to 1000 nM; in the assay with MDA-MB-231 [10], 1 to 1000 nM; in the assay on NCI-H23, 1 to 1000 nM; in the assay with NCI-H460 [11], greater than 30000 nM; in the assay with NCI-H596 [12], 1 to 1000 nM. For the same compound, the EC50 in the assay on T2 HCC [13] was 1 to 1000 nM; in the assay with T98G [14] it was greater than 30000 nM.

`COC(=O)c1cc(Oc2ncnc3cc[nH]c23)cc(C(=O)OC)c1` [Compound 36, dimethyl 5-((5H-pyrrolo[3,2-d]pyrimidin-4-yl)oxy)isophthalate]: the minimal effective concentration in the assay with RPEMYC^H2B-GFP cells (setting [15]) lay in the range of 0.001 to 1 µM; with RPEMYC^H2B-GFP cells (read-out: Mitotic Arrest (≥5%)) it was 0.001 to 1 µM; in the assay on HCT116 [1], 0.001 to 1 µM; in the assay on Hela [2], 0.001 to 1 µM; in the assay with MDA-MB-231 [3], 0.001 to 1 µM; in the assay with NCI-H460 [4] it was 1 to 10 µM. For the same compound, the minimal effective concentration in the assay on NCI-H596 [5], in the assay with T2 HCC [6] and in the assay on T98G [7] was 0.001 to 1 µM each time. Also, the IC50 in the assay with RPEMYC^H2B-GFP cells was 1 to 1000 nM. Moreover, the concentration giving a half-maximal response (EC50) is 1 to 1000 nM in the assay with HCT116 [8]; 1 to 1000 nM in the assay on Hela [9]; 1 to 1000 nM in the assay with MDA-MB-231 [10]; 1 to 1000 nM with NCI-H23; greater than 30000 nM with NCI-H460 [11]; 1 to 1000 nM with NCI-H596 [12]. The EC50 with T2 HCC [13] and in the assay on T98G [14] was 1 to 1000 nM in each case.

`COC(=O)c1cc(OC)cc(Oc2ncnc3ccsc23)c1` [Compound 37, methyl 3-methoxy-5-(thieno[3,2-d]pyrimidin-4-yloxy)benzoate]: the minimal effective concentration in the assay on RPEMYC^H2B-GFP cells (setting [15]) is 0.001 to 1 µM; with RPEMYC^H2B-GFP cells (read-out: Mitotic Arrest (≥5%)), 0.001 to 1 µM; in the assay on HCT116 [1], 0.001 to 1 µM; in the assay with Hela [2], 0.001 to 1 µM; in the assay with MDA-MB-231 [3], 0.001 to 1 µM; in the assay on NCI-H460 [4] it was 1 to 10 µM. Also, the minimal effective concentration is 0.001 to 1 µM in the assay on NCI-H596 [5], 0.001 to 1 µM in the assay with T2 HCC [6] and 1 to 10 µM with T98G [7]. Further, the IC50 in the assay on RPEMYC^H2B-GFP cells is 1 to 1000 nM. Besides, the EC50 with HCT116 [8] was 1 to 1000 nM; in the assay on Hela [9] it was 1 to 1000 nM; in the assay with MDA-MB-231 [10], 1 to 1000 nM; with NCI-H23 it was 1 to 1000 nM; with NCI-H460 [11], greater than 30000 nM; with NCI-H596 [12], 1 to 1000 nM. Further, the EC50 with T2 HCC [13] is 1 to 1000 nM; in the assay with T98G [14], greater than 30000 nM.

`COC(=O)c1cc(Oc2ncnc3ccsc23)cc(C(=O)OC)c1` [Compound 39, dimethyl 5-(thieno[3,2-d]pyrimidin-4-yloxy)isophthalate]: the “Min. Effective conc. for Polyploidy (≥5%)” value in the assay with RPEMYC^H2B-GFP cells was “B (a value greater than 1.00 μM and less than or equal to 10.0 μM)”. The “Mitotic Arrest (≥5%)” value with RPEMYC^H2B-GFP cells was “B (a value greater than 1.00 μM and less than or equal to 10.0 μM)”. Besides, the “Proliferative arrest (>50%)” value in the assay with RPEMYC^H2B-GFP cells is “B (a value greater than 1.00 μM and less than or equal to 10.0 μM)”. Besides, the “Along with Cell Death” value in the assay on RPEMYC^H2B-GFP cells (listed as 33) is “B (a value greater than 1.00 μM and less than or equal to 10.0 μM)”. In addition, the minimal effective concentration with RPEMYC^H2B-GFP cells (setting [15]) lay in the range of 0.001 to 1 µM; with RPEMYC^H2B-GFP cells (read-out: Mitotic Arrest (≥5%)) it was 0.001 to 1 µM; in the assay on HCT116 [1], 0.001 to 1 µM; in the assay on Hela [2], 0.001 to 1 µM; with MDA-MB-231 [3] it was 0.001 to 1 µM; in the assay with NCI-H460 [4], 1 to 10 µM. Further, the minimal effective concentration with NCI-H596 [5], in the assay with T2 HCC [6] and with T98G [7] was 0.001 to 1 µM each time. Besides, the IC50 in the assay on RPEMYC^H2B-GFP cells fell in the range of 1 to 1000 nM. Besides, the EC50 with HCT116 [8] was 1 to 1000 nM; with Hela [9], 1 to 1000 nM; with MDA-MB-231 [10] it was 1 to 1000 nM; with NCI-H23, 1 to 1000 nM; with NCI-H460 [11], greater than 30000 nM; in the assay on NCI-H596 [12], greater than 30000 nM. Further, the EC50 with T2 HCC [13] and in the assay with T98G [14] was 1 to 1000 nM in each case.
